Source: patent US8802597B2, “Herbicidal pyrimidines” (E I du Pont de Nemours and Company, priority 2003, dated 2014)

Tests used:
Assay in all cases: Test G pre/postemergence
Assay type in all cases: in vivo
[1] = tested on: Italian ryegrass (Lolium multiflorum)
Procedure, shortened: (§1)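 Test chemicals in a non-phytotoxic solvent blend with surfactant are applied to soil after seeding or to foliage of 2–18 cm seedlings. Greenhouse response is scored visually at 12–21 days on a 0 to 100 control scale.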

[2] = tested on: Surinam grass (Brachiaria decumbens)
Procedure, shortened: as §1

[3] = tested on: annual bluegrass (Poa annua)
Procedure, shortened: as §1

[4] = tested on: barnyardgrass (Echinochloa crus-galli)
Procedure, shortened: as §1

[5] = tested on: bermudagrass (Cynodon dactylon)
Procedure, shortened: as §1

[6] = tested on: downy bromegrass (Bromus tectorum)
Procedure, shortened: as §1

[7] = tested on: field bindweed (Convolvulus arvensis)
Procedure, shortened: as §1

[8] = tested on: guineagrass (Panicum maximum)
Procedure, shortened: as §1

[9] = tested on: johnsongrass (Sorghum halepense)
Procedure, shortened: as §1

[10] = tested on: tropical spiderwort (Commelina benghalensis)
Procedure, shortened: as §1

[11] = Postemergence, 250 g ai/ha, scale 0 to 100
[12] = Postemergence, 16 g ai/ha, scale 0 to 100
[13] = Postemergence, 31 g ai/ha, scale 0 to 100
[14] = Postemergence, 62 g ai/ha, scale 0 to 100
[15] = Postemergence, 125 g ai/ha, scale 0 to 100
[16] = Preemergence, 16 g ai/ha, scale 0-100
[17] = Preemergence, 31 g ai/ha, scale 0-100
[18] = Preemergence, 62 g ai/ha, scale 0-100
[19] = Preemergence, 125 g ai/ha, scale 0-100
[20] = Preemergence, 250 g ai/ha, scale 0-100
[21] = Postemergence, 8 g ai/ha, scale 0 to 100
[22] = Preemergence, 8 g ai/ha, scale 0-100

Structure (SMILES): Nc1nc(C2CC2)nc(C(=O)[O-])c1Cl.[Na+] [Compound 77, 6-amino-5-chloro-2-cyclopropyl-4-pyrimidinecarboxylic acid monosodium salt]
- Plant response rating, Ryegrass, Italian [1, 11]: 40
- Plant response rating, Ryegrass, Italian [1, 12]: 0
- Plant response rating, Ryegrass, Italian [1, 13]: 20
- Plant response rating, Ryegrass, Italian [1, 14]: 30
- Plant response rating, Ryegrass, Italian [1, 15]: 30
- Plant response rating, Ryegrass, Italian [1, 16]: 0
- Plant response rating, Ryegrass, Italian [1, 17]: 0
- Plant response rating, Ryegrass, Italian [1, 18]: 0
- Plant response rating, Ryegrass, Italian [1, 19]: 40
- Plant response rating, Ryegrass, Italian [1, 20]: 75
- Plant response rating, Surinam Grass [2, 11]: 70
- Plant response rating, Surinam Grass [2, 12]: 0
- Plant response rating, Surinam Grass [2, 13]: 10
- Plant response rating, Surinam Grass [2, 14]: 25
- Plant response rating, Surinam Grass [2, 15]: 65
- Plant response rating, Surinam Grass [2, 16]: 0
- Plant response rating, Surinam Grass [2, 17]: 5
- Plant response rating, Surinam Grass [2, 18]: 70
- Plant response rating, Surinam Grass [2, 19]: 90
- Plant response rating, Surinam Grass [2, 20]: 100
- Plant response rating, Bluegrass [3, 11]: 40
- Plant response rating, Bluegrass [3, 12]: 0
- Plant response rating, Bluegrass [3, 13]: 0
- Plant response rating, Bluegrass [3, 14]: 0
- Plant response rating, Bluegrass [3, 15]: 40
- Plant response rating, Bluegrass [3, 16]: 0
- Plant response rating, Bluegrass [3, 17]: 0
- Plant response rating, Bluegrass [3, 18]: 5
- Plant response rating, Bluegrass [3, 19]: 20
- Plant response rating, Bluegrass [3, 20]: 40
- Plant response rating, Barnyardgrass [4, 11]: 75
- Plant response rating, Barnyardgrass [4, 12]: 0
- Plant response rating, Barnyardgrass [4, 13]: 10
- Plant response rating, Barnyardgrass [4, 14]: 40
- Plant response rating, Barnyardgrass [4, 15]: 65
- Plant response rating, Barnyardgrass [4, 16]: 50
- Plant response rating, Barnyardgrass [4, 17]: 55
- Plant response rating, Barnyardgrass [4, 18]: 75
- Plant response rating, Barnyardgrass [4, 19]: 85
- Plant response rating, Barnyardgrass [4, 20]: 90
- Plant response rating, Bermudagrass [5, 11]: 50
- Plant response rating, Bermudagrass [5, 12]: 10
- Plant response rating, Bermudagrass [5, 13]: 20
- Plant response rating, Bermudagrass [5, 14]: 35
- Plant response rating, Bermudagrass [5, 15]: 35
- Plant response rating, Bermudagrass [5, 16]: 0
- Plant response rating, Bermudagrass [5, 17]: 0
- Plant response rating, Bermudagrass [5, 18]: 0
- Plant response rating, Bermudagrass [5, 19]: 10
- Plant response rating, Bermudagrass [5, 20]: 60
- Plant response rating, Bromegrass, Downy [6, 11]: 75
- Plant response rating, Bromegrass, Downy [6, 12]: 0
- Plant response rating, Bromegrass, Downy [6, 13]: 20
- Plant response rating, Bromegrass, Downy [6, 14]: 35
- Plant response rating, Bromegrass, Downy [6, 15]: 65
- Plant response rating, Bromegrass, Downy [6, 16]: 0
- Plant response rating, Bromegrass, Downy [6, 17]: 0
- Plant response rating, Bromegrass, Downy [6, 18]: 0
- Plant response rating, Bromegrass, Downy [6, 19]: 10
- Plant response rating, Bromegrass, Downy [6, 20]: 75
- Plant response rating, Bindweed, Field [7, 11]: 100
- Plant response rating, Bindweed, Field [7, 12]: 70
- Plant response rating, Bindweed, Field [7, 13]: 98
- Plant response rating, Bindweed, Field [7, 14]: 98
- Plant response rating, Bindweed, Field [7, 15]: 100
- Plant response rating, Bindweed, Field [7, 16]: 80
- Plant response rating, Bindweed, Field [7, 17]: 90
- Plant response rating, Bindweed, Field [7, 18]: 95
- Plant response rating, Bindweed, Field [7, 19]: 100
- Plant response rating, Bindweed, Field [7, 20]: 100
- Plant response rating, Guineagrass [8, 11]: 75
- Plant response rating, Guineagrass [8, 12]: 0
- Plant response rating, Guineagrass [8, 13]: 0
- Plant response rating, Guineagrass [8, 14]: 65
- Plant response rating, Guineagrass [8, 15]: 65
- Plant response rating, Guineagrass [8, 16]: 30
- Plant response rating, Guineagrass [8, 17]: 70
- Plant response rating, Guineagrass [8, 18]: 85
- Plant response rating, Guineagrass [8, 19]: 85
- Plant response rating, Guineagrass [8, 20]: 95
- Plant response rating, Johnsongrass [9, 11]: 85
- Plant response rating, Johnsongrass [9, 12]: 20
- Plant response rating, Johnsongrass [9, 13]: 65
- Plant response rating, Johnsongrass [9, 14]: 70
- Plant response rating, Johnsongrass [9, 15]: 85
- Plant response rating, Johnsongrass [9, 16]: 10
- Plant response rating, Johnsongrass [9, 17]: 65
- Plant response rating, Johnsongrass [9, 18]: 75
- Plant response rating, Johnsongrass [9, 19]: 85
- Plant response rating, Johnsongrass [9, 20]: 95
- Plant response rating, Spiderwort [10, 11]: 100
- Plant response rating, Spiderwort [10, 12]: 10
- Plant response rating, Spiderwort [10, 13]: 50
- Plant response rating, Spiderwort [10, 14]: 75
- Plant response rating, Spiderwort [10, 15]: 90
- Plant response rating, Spiderwort [10, 16]: 60
- Plant response rating, Spiderwort [10, 17]: 85
- Plant response rating, Spiderwort [10, 18]: 95
- Plant response rating, Spiderwort [10, 19]: 95
- Plant response rating, Spiderwort [10, 20]: 100

Structure (SMILES): CCOC(=O)c1nc(-c2ccc(Cl)cc2)nc(N)c1Cl [Compound 64, ethyl 6-amino-5-chloro-2-(4-chlorophenyl)-4-pyrimidinecarboxylate]
- Plant response rating, Ryegrass, Italian [1, 21]: 0
- Plant response rating, Ryegrass, Italian [1, 12]: 10
- Plant response rating, Ryegrass, Italian [1, 13]: 20
- Plant response rating, Ryegrass, Italian [1, 14]: 35
- Plant response rating, Ryegrass, Italian [1, 22]: 0
- Plant response rating, Ryegrass, Italian [1, 16]: 0
- Plant response rating, Ryegrass, Italian [1, 17]: 0
- Plant response rating, Ryegrass, Italian [1, 18]: 0
- Plant response rating, Surinam Grass [2, 21]: 0
- Plant response rating, Surinam Grass [2, 12]: 0
- Plant response rating, Surinam Grass [2, 13]: 0
- Plant response rating, Surinam Grass [2, 14]: 10
- Plant response rating, Surinam Grass [2, 22]: 0
- Plant response rating, Surinam Grass [2, 16]: 0
- Plant response rating, Surinam Grass [2, 17]: 0
- Plant response rating, Surinam Grass [2, 18]: 0
- Plant response rating, Bluegrass [3, 21]: 0
- Plant response rating, Bluegrass [3, 12]: 0
- Plant response rating, Bluegrass [3, 13]: 0
- Plant response rating, Bluegrass [3, 14]: 0
- Plant response rating, Bluegrass [3, 22]: 0
- Plant response rating, Bluegrass [3, 16]: 0
- Plant response rating, Bluegrass [3, 17]: 0
- Plant response rating, Bluegrass [3, 18]: 0
- Plant response rating, Barnyardgrass [4, 21]: 0
- Plant response rating, Barnyardgrass [4, 12]: 20
- Plant response rating, Barnyardgrass [4, 13]: 20
- Plant response rating, Barnyardgrass [4, 14]: 20
- Plant response rating, Barnyardgrass [4, 22]: 0
- Plant response rating, Barnyardgrass [4, 16]: 0
- Plant response rating, Barnyardgrass [4, 17]: 0
- Plant response rating, Barnyardgrass [4, 18]: 10
- Plant response rating, Bermudagrass [5, 21]: 0
- Plant response rating, Bermudagrass [5, 12]: 20
- Plant response rating, Bermudagrass [5, 13]: 35
- Plant response rating, Bermudagrass [5, 14]: 35
- Plant response rating, Bermudagrass [5, 22]: 0
- Plant response rating, Bermudagrass [5, 16]: 0
- Plant response rating, Bermudagrass [5, 17]: 0
- Plant response rating, Bermudagrass [5, 18]: 0
- Plant response rating, Bromegrass, Downy [6, 21]: 0
- Plant response rating, Bromegrass, Downy [6, 12]: 20
- Plant response rating, Bromegrass, Downy [6, 13]: 40
- Plant response rating, Bromegrass, Downy [6, 14]: 75
- Plant response rating, Bromegrass, Downy [6, 22]: 0
- Plant response rating, Bromegrass, Downy [6, 16]: 0
- Plant response rating, Bromegrass, Downy [6, 17]: 0
- Plant response rating, Bromegrass, Downy [6, 18]: 0
- Plant response rating, Bindweed, Field [7, 21]: 60
- Plant response rating, Bindweed, Field [7, 12]: 70
- Plant response rating, Bindweed, Field [7, 13]: 80
- Plant response rating, Bindweed, Field [7, 14]: 90
- Plant response rating, Bindweed, Field [7, 22]: 0
- Plant response rating, Bindweed, Field [7, 16]: 0
- Plant response rating, Bindweed, Field [7, 17]: 0
- Plant response rating, Bindweed, Field [7, 18]: 65
- Plant response rating, Guineagrass [8, 21]: 0
- Plant response rating, Guineagrass [8, 12]: 0
- Plant response rating, Guineagrass [8, 13]: 0
- Plant response rating, Guineagrass [8, 14]: 0
- Plant response rating, Guineagrass [8, 22]: 0
- Plant response rating, Guineagrass [8, 16]: 0
- Plant response rating, Guineagrass [8, 17]: 0
- Plant response rating, Guineagrass [8, 18]: 0
- Plant response rating, Johnsongrass [9, 21]: 0
- Plant response rating, Johnsongrass [9, 12]: 0
- Plant response rating, Johnsongrass [9, 13]: 0
- Plant response rating, Johnsongrass [9, 14]: 0
- Plant response rating, Johnsongrass [9, 22]: 0
- Plant response rating, Johnsongrass [9, 16]: 0
- Plant response rating, Johnsongrass [9, 17]: 0
- Plant response rating, Johnsongrass [9, 18]: 0
- Plant response rating, Spiderwort [10, 21]: 65
- Plant response rating, Spiderwort [10, 12]: 80
- Plant response rating, Spiderwort [10, 13]: 80
- Plant response rating, Spiderwort [10, 14]: 90
- Plant response rating, Spiderwort [10, 22]: 0
- Plant response rating, Spiderwort [10, 16]: 50
- Plant response rating, Spiderwort [10, 17]: 75
- Plant response rating, Spiderwort [10, 18]: 90
